# Reference: patent US6812028B1, “Embryogenesis and plant regeneration from microspores” (University of Guelph, priority 1999, dated 2004)
# Tests used:
# Type in all cases: cell-based
# [1] = test system: wheat microspores cv Pavon 79; assay: Regeneration of plants from wheat microspores with AGP in induction media MMS4; conditions: for # of plants Albino / # of plants Total / # of plants green / % of green plants / % of regen.: 250 embryos transferred to regeneration medium; for Total # of embryos: induction media MMS4, cv Pavon 79
# Experimental: The effect of AGP on embryogenesis and plant regeneration was assessed in wheat microspores which were isolated from genotype Pavon 79 according to the method of the present invention. AGP levels of 0, 1, 5, and 10 mg/liter were tested. […] Additionally, the data illustrates the presence of ovaries in co-culture enhanced embryogenesis and plant regeneration. Only at 10 mg/liter of AGP was significant embryogenesis observed in the absence of ovary co-culture. FIG. 5(a) illustrates the comparative response of wheat microspores to the presence or absence of wheat ovaries and 0 or 10 mg/L AGP. FIG. 6 illustrates the good embryo structure developed in wheat after 4 weeks on medium with ovaries and AGP.
# [2] = test system: spring wheat Pavon 79 isolated microspores; assay: AGP in isolated microspore culture, liquid medium versus filter paper, co-cultured with ovaries; conditions: for Total # Embryos/Plate: MMS4, with ovaries
# Experimental: […] […] The results are similar for liquid and filter paper at the 3 compared concentrations, and 10 mg/liter of AGP gave the best response.
# [3] = test system: microspores of spring wheat genotypes Chris and Pavon 79; assay: AGP effect on embryo development from microspores, 0.8 ml drop on solid MMS4 with 3-4 ovaries; conditions: for avg. # embryos: genotype Chris, 5 reps; for # embryos: genotype Pavon 79, 3 reps
# Experimental: The effect of AGP on microspore embryogenesis in the presence of ovary co-culture was assessed using Chris and Pavon 79 wheat genotypes. Media comprising 5 mg/liter and 10 mg/liter of AGP were compared with a control medium, on microspore embryogenesis in the presence of ovary co-culture. The results in Table 9 indicate that overall response of Chris to AGP is higher than the response of Pavon 79.
substance,measurement,setting,value
arabinogalactan protein [AGP],# of plants Albino,[1]; AGP 1 mg/L with ovaries,70
same,# of plants Total,[1]; AGP 1 mg/L with ovaries,118
same,# of plants green,[1]; AGP 1 mg/L with ovaries,48
same,% of green plants,[1]; AGP 1 mg/L with ovaries,41%
same,% of regen.,[1]; AGP 1 mg/L with ovaries,47%
same,Total # of embryos,[1]; AGP 1 mg/L with ovaries,2130
same,# of plants Albino,[1]; AGP 5 mg/L with ovaries,70
same,# of plants Total,[1]; AGP 5 mg/L with ovaries,120
same,# of plants green,[1]; AGP 5 mg/L with ovaries,50
same,% of green plants,[1]; AGP 5 mg/L with ovaries,42%
same,% of regen.,[1]; AGP 5 mg/L with ovaries,48%
same,Total # of embryos,[1]; AGP 5 mg/L with ovaries,3393
same,# of plants Albino,[1]; AGP 10 mg/L with ovaries,60
same,# of plants Total,[1]; AGP 10 mg/L with ovaries,189
same,# of plants green,[1]; AGP 10 mg/L with ovaries,129
same,% of green plants,[1]; AGP 10 mg/L with ovaries,68%
same,% of regen.,[1]; AGP 10 mg/L with ovaries,76%
same,Total # of embryos,[1]; AGP 10 mg/L with ovaries,4250
same,"embryogenesis, regeneration and % green plant production","[1]; addition of 10 mg/L of AGP, genotype Pavon 79",significant improvement
same,embryo response in liquid and on filter paper,[2]; 10 mg/liter of AGP compared with 0 and 5 mg/liter,best response
same,Total # Embryos/Plate,"[2]; AGP 1 mg/L, Liquid",2130
same,Total # Embryos/Plate,"[2]; AGP 5 mg/L, Filter",3080
same,Total # Embryos/Plate,"[2]; AGP 5 mg/L, Liquid",3393
same,Total # Embryos/Plate,"[2]; AGP 10 mg/L, Filter",4528
same,Total # Embryos/Plate,"[2]; AGP 10 mg/L, Liquid",4250
same,avg. # embryos,[3]; AGP 5 mg/L,5618
same,# embryos,[3]; AGP 5 mg/L,4155
same,avg. # embryos,[3]; AGP 10 mg/L,9836
same,# embryos,[3]; AGP 10 mg/L,4681
